Where two headings read alike, the source gives them in different places.
Columns and labels:
CYP2C19 = CYP2C19 (Homo sapiens, UniProt P33261); test: CYP inhibition assay; type: in vitro ADME; details: read-out: % Inhibition at 30 μM CYP 2C19
44 protein targets = test: Selectivity screen against 44 protein targets (whole panel); type: binding; details: 10 μM; % inhibition less than 50% is considered no effect
Text: If the % inhibition is less than 50%, the test compounds is consider to have no effect.

Colo205 (colon) = test: Cancer cell proliferation assay (acid phosphatase); type: cell-based; details: Homo sapiens, COLO 205; Table 6C, data of FIG. 2
How it was run: (§1)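 Growth inhibition is expressed as a percentage of DMSO-treated control cells, using absorbance at 405 nm corrected at 620 nm after acid phosphatase conversion of p-nitrophenol phosphate. Compound exposure lasts 72 hrs at 37° C. following overnight attachment.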

HT-29 (colon) = test: Cancer cell proliferation assay (acid phosphatase); type: cell-based; details: Homo sapiens, Table 6C, data of FIG. 2
How it was run: as §1

Ovarian (A2780) = test: Cancer cell proliferation assay (acid phosphatase); type: cell-based; details: Homo sapiens
How it was run: as §1

Ovarian (ES-2) = test: Cancer cell proliferation assay (acid phosphatase); type: cell-based
How it was run: as §1

Ovarian OAW28 (OAW2B) = test: Cancer cell proliferation assay (acid phosphatase); type: cell-based; details: Homo sapiens, OAW-28
How it was run: as §1

Mantle Cell Mino = test: Cancer cell proliferation assay (acid phosphatase); type: cell-based; details: Homo sapiens, Table 6E
How it was run: as §1

TOV-112D (ovarian) = test: Cancer cell proliferation assay (acid phosphatase); type: cell-based; details: Homo sapiens, TOV112D
How it was run: as §1

Ovarian OVCAR-3 = test: Cancer cell proliferation assay (acid phosphatase); type: cell-based; details: Homo sapiens, Table 6E
How it was run: as §1

A427 (lung) = test: Cancer cell proliferation assay (acid phosphatase); type: cell-based; details: Homo sapiens, A-427; Table 6C, data of FIG. 2
How it was run: as §1

JEKO-1 (lymophoma) = test: Cancer cell proliferation assay (acid phosphatase); type: cell-based; details: Homo sapiens
How it was run: as §1

SW626 (ovarian) = test: Cancer cell proliferation assay (acid phosphatase); type: cell-based; details: Homo sapiens
How it was run: as §1

SKOV3 (ovarian) = test: Cancer cell proliferation assay (acid phosphatase); type: cell-based; details: Homo sapiens, SK-OV-3; Table 6D, another set of cell proliferation assay
How it was run: as §1

[1] = Table 6D, another set of cell proliferation assay

CYP2C19, sequence (P33261 whole entry): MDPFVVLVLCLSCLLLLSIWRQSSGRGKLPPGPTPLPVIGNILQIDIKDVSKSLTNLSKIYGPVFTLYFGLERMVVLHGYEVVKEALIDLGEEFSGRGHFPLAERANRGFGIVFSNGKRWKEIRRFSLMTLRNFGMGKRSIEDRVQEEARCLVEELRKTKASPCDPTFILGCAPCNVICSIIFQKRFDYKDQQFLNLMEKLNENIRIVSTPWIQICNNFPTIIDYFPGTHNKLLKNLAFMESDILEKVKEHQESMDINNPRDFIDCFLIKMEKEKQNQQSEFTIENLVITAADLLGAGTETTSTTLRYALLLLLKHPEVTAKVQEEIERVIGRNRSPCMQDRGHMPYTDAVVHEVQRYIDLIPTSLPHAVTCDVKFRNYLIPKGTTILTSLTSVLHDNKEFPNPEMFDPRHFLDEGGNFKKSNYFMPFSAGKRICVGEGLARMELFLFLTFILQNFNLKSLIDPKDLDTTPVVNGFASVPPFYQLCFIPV

For `Cc1ccccc1C(=O)Nc1nc(NC(=O)c2ccccc2C)n(-c2ccc(OC(F)(F)F)cc2)n1` [Compound 42, N,N′-(1-(4-(trifluoromethoxy)phenyl)-1H-1,2,4-triazole-3,5-diyl)bis(2-methylbenzamide)], the inhibition at 30 μM (CYP2C19) was 60.5%, the “effect against the 44 protein targets” value (44 protein targets) was “no effects” and the IC50 (Colo205 (colon)) was 0.2 µM. For the same molecule, the IC50 (HT-29 (colon)) was 0.2 µM, the EC50 (Ovarian (A2780); [1]) was 58 nM and the IC50 (Ovarian (A2780); Table 6E) was 84 nM. For the same molecule, the EC50 (Ovarian (ES-2); [1]) was 42 nM, the IC50 (Ovarian (ES-2); Table 6E) was 57 nM and the EC50 (Ovarian OAW28 (OAW2B); [1]) was 114 nM. For the same molecule, the IC50 (Ovarian OAW28 (OAW2B); Table 6E) was 140 nM, the IC50 (Mantle Cell Mino) was 345 nM and the IC50 (TOV-112D (ovarian); Table 6C, data of FIG. 2, read-out: IC50 (μM) TOV-112D (ovarian)) was 0.13 µM. The EC50 (TOV-112D (ovarian); Table 6D, another set of cell proliferation assay, read-out: EC50 (nM) Ovarian (TOV0112D)) was 98 nM, the IC50 (TOV-112D (ovarian); Table 6E, read-out: Proliferation IC50 (nM) Ovarian TOV112D) was 0.103 µM and the IC50 (Ovarian OVCAR-3) was 140 nM. It also gave an IC50 (A427 (lung)) of 0.15 µM, an EC50 (JEKO-1 (lymophoma); Table 6D, another set of cell proliferation assay, read-out: EC50 (nM) Mantle cell (Jeko-1)) of 154 nM and an IC50 (JEKO-1 (lymophoma); Table 6E, read-out: Proliferation IC50 (nM) Mantle Cell Jeko-1) of 154 nM. It also gave an IC50 (SW626 (ovarian); Table 6C, data of FIG. 2) of 0.3 µM, an EC50 (SW626 (ovarian); [1]) of 334 nM and an EC50 (SKOV3 (ovarian)) of 376 nM.

From US10889553B2, “Asymmetric triazole benzamide derivatives and the compositions and methods of treatment regarding the same” (NysnoBio Ireland DAC, priority 2017, dated 2021)
